In article PMC7504215, “Copper(II) Complexes with Mixed Heterocycle Ligands as Promising Antibacterial and Antitumor Species” (Molecules, 2020):
Read-outs that look alike come from different tables or passages of the source.

Legend:
[1] = tested on: MRSA; experiment: MIC assay, liquid medium microdilution (planktonic growth); type: cell-based, Staphylococcus aureus; details: 24 h at 37 °C
Experimental: (§1) The antibacterial assays were performed on Gram-negative (Escherichia coli ATCC 25922, E. coli 5, Pseudomonas aeruginosa ATCC 27853, P. aeruginosa ATCC 9027) and Gram-positive (Staphylococcus aureus ATCC 25923, S. aureus ATCC 6538, MRSA (Meticillin-resistant S. aureus) 388, ATCC, American Type Culture Collection) bacterial strains. Microbial suspensions (1.5 × 10^8 CFU/mL; colony forming units (CFU)) corresponding to 0.5 McFarland density obtained from 15 to 18-h bacterial cultures developed on solid media were used. The antimicrobial activity was tested on Mueller–Hinton agar medium.
(§2) The quantitative assay of the antimicrobial activity was performed by the liquid medium microdilution method, in 96-well multi-well plates, to establish the minimal inhibitory concentration (MIC). For this purpose, serial two-fold dilutions of the compounds ranging between 1.000 and 1.95 μg/mL were performed in a 200 μL volume of broth and each well was seeded with 50 μL microbial inoculums. Sterility control (wells containing only culture medium) and culture controls (wells containing culture medium seeded with the microbial inoculum) were used. The influence of the DMSO solvent was also quantified in a series of wells containing DMSO, diluted accordingly with the dilution scheme used for the complexes. The plates were incubated for 24 h at 37 °C, and MIC values were considered as the lowest concentration of the tested compound that inhibited the visible growth of the microbial overnight cultures.

[2] = tested on: S. aureus 25923; experiment: as above; type: cell-based, Staphylococcus aureus; details: S. aureus 25923, 24 h at 37 °C
Experimental: as §1, §2

[3] = tested on: S. aureus 6538; experiment: as above; type: cell-based, Staphylococcus aureus; details: S. aureus 6538, 24 h at 37 °C
Experimental: as §1, §2

[4] = tested on: E. coli 25922; experiment: MBEC assay, micro-titer method (biofilm); type: cell-based, Escherichia coli
Experimental: as §1
(§3) The assessment of the complexes’ influence on the microbial ability to colonize an inert substratum with the establishment of the minimal biofilm eradication concentration (MBEC) was performed by the micro-titer method, following previously described protocols. The absorbance at 490 nm was measured with an Apollo LB 911ELISA (Berthold Technologies GmbH & Co. KG, Waltham, MA, USA) reader. All experiments were performed in triplicates.

[5] = tested on: E. coli 5 ESBL; experiment: MBEC assay, micro-titer method (biofilm); type: cell-based, Escherichia coli
Experimental: as §1, §3

[6] = tested on: P. aeruginosa 27853; experiment: MBEC assay, micro-titer method (biofilm); type: cell-based, Pseudomonas aeruginosa
Experimental: as §1, §3

[7] = tested on: P. aeruginosa 9027; experiment: MBEC assay, micro-titer method (biofilm); type: cell-based, Pseudomonas aeruginosa
Experimental: as §1, §3

[8] = tested on: normal BJ cell (human fibroblast); experiment: MTT cell viability assay; type: cell-based
Experimental: The cytotoxicity of ligand and copper(II) complexes was tested on normal BJ cell as well as on B16 (melanoma) tumor cells, which were grown for 48 h in culture medium containing the tested complexes in 0–25 μg/mL concentration range.
Human fibroblast cells (BJ-ATCC CRL-2522, Manassas, VA, USA) were grown in minimal essential medium (MEM) supplemented with 2 mM L-Glutamine, 10% fetal calf serum (FCS), 100 units/mL of penicillin and 100 µg/mL of streptomycin at 37 °C in a humidified incubator under an atmosphere containing 5% CO2. Mouse melanoma cells (B16-ATCC CRL-6475, Manassas, VA, USA) were grown in DMEM (Dulbecco’s Modified Eagle Medium) supplemented with similar reagents as MEM. All cell cultivation media and reagents were purchased from Biochrom AG (Berlin, Germany) and Sigma-Aldrich (Darmstadt, Germany).
Cell viability was evaluated using 3-(4,5-dimethylthiazol-2-yl)-2,5-diphenyltetrazolium bromide (MTT) assay, as described previously. First, the cells were seeded in 96-well plates (20,000 cells/well) and cultured for 24 h in medium. After overnight incubation, the medium was changed and the investigated sample in concentration varying from […] was added for 24 h. The negative control was represented by cells cultivated in medium without the investigated compounds. Following incubation, the medium was changed and the MTT solution was added to each well to a final concentration of 1 mg/mL and incubated for additional 4 h, at 37 °C. Finally, the medium was collected and DMSO was used to dissolve the insoluble formazan product. The absorbance of the samples was recorded at 570 nm using a plate reader Mithras 940 (Berthold). The data were corrected for the background and the percentage of viable cells was obtained using the equation:Cell viability = [(A570 of treated cells)/(A570 of untreated cells)] × 100%
The half-maximal inhibitory concentration (IC50) was determined by fitting the data with a logistical sigmoidal equation using the software Origin 8.1 from Microcal Inc. (Los Angeles, CA, USA).

[9] = tested on: sod1Δ cells; type: cell-based, Saccharomyces cerevisiae; details: sod1Δ cells lacking Cu/Zn-superoxide dismutase Sod1
Experimental: (§4) The Saccharomyces cerevisiae laboratory strain BY4741 (MATa; his3Δ1; leu2Δ0; met15Δ0; ura3Δ0), considered wild type (WT), and the isogenic strains sod1Δ and sod2Δ lacking the genes SOD1 (encoding Cu/Zn-superoxide dismutase) and SOD2 (encoding Mn-superoxide dismutase) were purchased from EUROSCARF (Frankfurt, Germany). Cells were maintained and manipulated and grown in YPD medium (1% w/v yeast extract, 2% w/v peptone, 2% w/v glucose; 2% w/v agar was added for solid media). Complexes were added to autoclaved media from DMSO sterile stocks (10 mM). To determine the effect of compounds on yeast growth, a fresh overnight pre-culture was 10^3-fold diluted in YPD and incubated (200 rpm, 30 °C) until the culture reached a density of 5 × 10^5 cells/mL. At this point, the compounds were added to the desired concentrations, and cell proliferation was monitored at 660 nm in a 96-well multi-scanner autoreader plate reader equipped with a thermostat and shaker (Varioskan Thermo Fischer Scientific, Vantaa, Finland). The uptake of compounds by yeast cells was determined indirectly by measuring the increase of the total cellular copper content normalized to the total cellular protein determined by Bradford assay. All determinations were done on three biological replicates. The IC50 was calculated by nonlinear regression analysis using the Graphpad Prism software.

[10] = tested on: sod2Δ cells; type: cell-based, Saccharomyces cerevisiae; details: sod2Δ cells lacking Mn-superoxide dismutase Sod2
Experimental: as §4

| Structure (SMILES) | MIC [1] | MIC [2] | MIC [3] | MBEC value [4] | MBEC value [5] | MBEC value [6] | MBEC value [7] | IC50 BJ Cells 24 h ([8]; BJ cells, 24 h, MTT) | IC50 ([8]; BJ cells, 24 h, MTT, read-out: IC50 BJ Cells 24 h) | IC50 BJ Cells 48 h ([8]; BJ cells, 48 h, MTT) | IC50 ([8]; BJ cells, 48 h, MTT, read-out: IC50 BJ Cells 48 h) | Toxicity compared with WT yeast [9] | Toxicity compared with WT yeast [10] | Viability of BJ cells ([8]; 48 h, highest tested concentration (0–25 μg/mL range)) |
| --- | --- | --- | --- | --- | --- | --- | --- | --- | --- | --- | --- | --- | --- | --- |
| Cc1cc(-c2ccccc2)nc2ncnn12.[Cu+2].[O-][Cl+3]([O-])([O-])[O-].[O-][Cl+3]([O-])([O-])[O-].c1cnc2c(c1)ccc1cccnc12.c1cnc2c(c1)ccc1cccnc12 [(2), [Cu(phen)2(pmtp)](ClO4)2] | 50 µM | 10 µM | 90 µM | 0.02 mM | 0.05 mM | 0.09 mM | 0.01 mM | 5.98 µg/mL | 7 µM | 3.30 µg/mL | 4 µM | even more toxic | even more toxic | – |
| Cc1cc(-c2ccccc2)nc2ncnn12.[Cu+2].[O-][Cl+3]([O-])([O-])[O-].[O-][Cl+3]([O-])([O-])[O-].c1ccc(-c2ccccn2)nc1.c1ccc(-c2ccccn2)nc1 [(1), [Cu(bpy)2(pmtp)](ClO4)2] | 400 µM | 400 µM | 400 µM | 0.40 mM | 0.40 mM | 0.40 mM | 0.20 mM | – | – | – | – | even more toxic | even more toxic | 70% |
